Format in all cases: in vivo
In assay [1] the test system is mutant plant with heterozygous P165L substitution on ZmALS2. As to the kind of experiment: Herbicide resistance of ZmALS-P165 edited corn plant. An excerpt:
To establish the co-editing system in corn, acetolactate synthase site corresponding TaALS-P173 was targeted to test the herbicide resistance. It has been reported single edited allele on ZmALS2 could confer plants herbicide resistance (Svitashev et al, 2016). So the binary vector targeting ZmALS-P165 was transformed to immature embryos (ZmALS-P165 site is conserved in both ZmALS1 and ZmALS2). Three independent mutants were obtained from the regenerated plants and their genotypes are same.

Assay [2] concerns wild-type plants. As to the kind of experiment: Nicosulfuron selection medium, wild-type rice plants. The following applies: 0.0065 PPM Nicosulfuron. As to the method:
The pH-nCas9-PBE-OsALS-S1/S2 binary vector was transformed into Agrobacterium strain AGL1 by electroporation. Agrobacterium-mediated transformation, tissue culture and regeneration in rice cultivar Zhonghua 11 were performed according to Shan et al. (Shan, Q. et al. Targeted genome modification of crop plants using a CRISPR-Cas system. Nat. Biotechnol. 31, 686-688 (2013)). Hygromycin selection (50 μg/ml) was used during tissue culture. (This experiment is a proof of concept, so the plants were selected with hygromycin first, then by nicosulfuron. The objective was to first obtain transgenic plants and then screen for herbicide resistance). […] Four seedlings survived after 14 days. DNA was extracted from the four seedlings. The ALS gene was amplified by PCR, sequenced to determine the mutant genotype.

For assay [3], the system named is wild-type plants. In words: Nicosulfuron selection medium, wild-type wheat plants. An excerpt:
30 days later, twelve seedlings survived, and 9 of them had base mutations at the TaALS-S2 site. The efficiency of selecting the ALS-S2 site mutant plants using nicosulfuron selection medium was 75% (9/12).

Consider `COC(=O)c1ccc(CNS(C)(=O)=O)cc1S(=O)(=O)NC(=O)Nc1nc(OC)cc(OC)n1` [Mesosulfuron-methyl], for which the “resistance of mutant corn plant to the herbicide” value in assay [1] is “showed resistance”. As to `COc1cc(OC)nc(NC(=O)NS(=O)(=O)c2ncccc2C(=O)N(C)C)n1` [Nicosulfuron], the “survival of wild-type plants on selection medium” value in assay [2] is on record as “cannot survive”; in assay [3] it was “unable to survive”.

Source of the values: patent publication US20210230616A1, “METHODS FOR ISOLATING CELLS WITHOUT THE USE OF TRANSGENIC MARKER SEQUENCES” (INSTITUTE OF GENETICS AND DEVELOPMENTAL BIOLOGY, CHINESE …, priority 2017, published 2021).
